Data published in paper PMC5085761 (International Journal of Molecular Sciences, 2016).

Experiments:
LLC-PK1 monolayers = test: Apical-to-basal transport through LLC-PK1 monolayers; type: in vitro ADME, pig; settings: 10 µM tracer, at 120 min
Experimental: The LLC-PK1 cell line was purchased from DS Pharma Biomedical (Osaka, Japan). Cells were maintained in Dulbecco’s modified Eagle’s medium (DMEM; Life Technologies Japan, Tokyo, Japan) supplemented with 10% (v/v) fetal bovine serum (American Type Culture Collection, Manassas, VA, USA) and antibiotics (100 U/mL penicillin and 100 μg/mL streptomycin (Life Technologies Japan)). Cells were cultured at 37 °C under an atmosphere containing 5% CO2 before the start of the experiments.
Cells were seeded at a density of 1.5 × 10^6 cells/0.25 mL on the membrane of cell culture inserts fitting 24-well plates (upper compartment, apical side; Becton Dickinson, Franklin Lakes, NJ, USA). Flat-bottom 24-well tissue culture plates (Becton Dickinson) containing 0.95 mL of culture medium per well were used as the basolateral side (bottom compartment).
LLC-PK1 monolayer formation was monitored by the measurement of TER using an EVOM-2 and Endohm24 (World Precision Instruments, Inc., Sarasota, FL, USA) according to the manufacturer’s protocol. […] [^3H]Mannitol transport was measured as described in Section 4.3 for the validation of tight junction formation because mannitol passes through the cell monolayers via the paracellular route.
Experimental procedures were performed as described previously with minor modifications. After cultivation as described above, the culture media in both compartments were replaced with Na^+ buffer (137 mM NaCl, 2.7 mM KCl, 8 mM Na2HPO4, 1.5 mM KH2PO4, 5.6 mM D-glucose, 0.9 mM CaCl2, and 0.5 mM MgCl2; pH 7.4 at 37 °C), and the cells were preincubated for 10 min at 37 °C under normal air conditions. After the buffer was removed from each compartment, the permeability experiments were started with the addition of 0.25 mL of Na^+ buffer containing radiolabeled tracers (final concentration: 81 nM for [^3H]mannitol and 10 μM for the ^14C-labeled amino acid tracers) in each upper compartment, and 0.95 mL of Na^+ buffer in each bottom compartment. The inserts were placed into new 24-well culture plates containing 0.95 mL/well of Na^+ buffer after 5, 15, 30, 60, and 90 min of incubation. Subsequently, the cells were incubated up to 120 min at 37 °C under normal air conditions.
The apical-to-basal permeability was measured by sampling an aliquot of the buffer from the upper and bottom compartment at the indicated times. To evaluate intracellular accumulation, the cells were lysed in 0.5 mL of 0.1N NaOH at room temperature following rapid washing of the cells with ice-cold Na^+ buffer. The radioactivity of each aliquot was measured with an LSC6000SC (Beckman Coulter, Inc., Brea, CA, USA) or Tri-Carb 2910TR liquid scintillation counter (PerkinElmer) using Ultima Gold (PerkinElmer).

OATP1B3 = biological target: T1, OATP1B3 (Homo sapiens, UniProt Q9NPD5); test: Inhibition of tracer uptake in OATP1B3-expressing cells; type: in vitro ADME; settings: OATP1B3, tracer [3H]E2G 0.1 µM, 100 µM–10 mM fluciclovine
T1 construct: host or cells: HEK293
T1 sequence (Q9NPD5 1-702): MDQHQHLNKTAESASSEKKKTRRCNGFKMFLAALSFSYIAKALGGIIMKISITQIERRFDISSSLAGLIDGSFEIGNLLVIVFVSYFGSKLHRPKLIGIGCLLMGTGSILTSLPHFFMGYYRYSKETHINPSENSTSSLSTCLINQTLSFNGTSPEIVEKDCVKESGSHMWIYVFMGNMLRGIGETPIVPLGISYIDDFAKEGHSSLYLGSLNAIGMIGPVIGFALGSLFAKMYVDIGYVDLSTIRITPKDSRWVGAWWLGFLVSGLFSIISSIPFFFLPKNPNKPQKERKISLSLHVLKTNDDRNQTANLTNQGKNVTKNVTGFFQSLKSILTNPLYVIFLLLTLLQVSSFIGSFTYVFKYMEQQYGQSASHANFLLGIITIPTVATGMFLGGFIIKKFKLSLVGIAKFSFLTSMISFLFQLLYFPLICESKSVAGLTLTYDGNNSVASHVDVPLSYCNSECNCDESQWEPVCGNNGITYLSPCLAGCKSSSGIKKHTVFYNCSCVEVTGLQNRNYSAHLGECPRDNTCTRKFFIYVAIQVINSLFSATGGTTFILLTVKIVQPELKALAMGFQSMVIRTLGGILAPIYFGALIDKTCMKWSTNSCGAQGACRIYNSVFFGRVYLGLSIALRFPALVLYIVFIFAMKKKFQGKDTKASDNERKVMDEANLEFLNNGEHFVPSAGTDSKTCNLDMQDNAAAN
Experimental: For the SLC transporter experiments, Mock Flp-in-293 cells (Flp/mock), OAT1-expressing Flp-in-293 cells (Flp/OAT1), mock HEK293 cells (HEK/mock), and OATP1B3-expressing HEK293 cells (HEK/OATP1B3) were obtained from Kanazawa University (Ishikawa, Japan). Briefly, Flp-in-293 and HEK293 cells were transfected with the appropriate plasmid DNA and selected using antibiotics (hygromycin or G-418). All cell lines were cultured in DMEM (Life Technologies Japan) supplemented with 10% (v/v) fetal bovine serum (American Type Culture Collection) and antibiotics (100 U/mL penicillin and 100 μg/mL streptomycin (Life Technologies Japan) for mock cells, 0.2 mg/mL hygromycin for Flp/OAT1 cells, and 1.2 mg/mL G-418 (Roche Diagnostics K.K., Tokyo, Japan) for HEK/OATP1B3 cells) at 37 °C under an atmosphere containing 5% CO2. […]
The experiments were performed as described previously, with minor modifications. […] The cells were lysed in 0.3 mL of 0.1N NaOH at room temperature, after which the radioactivity of each aliquot was measured as described above. The protein concentration of the cell lysate was determined with a VersaMax microplate reader (Molecular Devices Japan K.K., Osaka, Japan) or SpectraMax i3x (Molecular Devices Japan K.K.; only for OATP1B1) using a BCA Protein Assay Kit (Thermo Fisher Scientific, Kanagawa, Japan). Tracer uptake was expressed as pmol/mg protein. […]

Compound | mean penetration amount (apical-to-basal transport) (LLC-PK1 monolayers) | mean residual radioactivity in the cells (LLC-PK1 monolayers) | inhibition by fluciclovine at millimolar concentrations observed (OATP1B3)
N[14C]1(C(=O)O)CC(F)C1 (stereo not drawn) [[^14C]fluciclovine, trans-1-amino-3-fluoro[1-^14C]cyclobutanecarboxylic acid] | 145 pmol | 238 pmol | 
N[C@]1(C(=O)O)C[C@@H](F)C1 [fluciclovine] |  |  | not
